Experimental data taken from patent publication US20210261524A1, “THERAPEUTIC COMPOUNDS AND COMPOSITIONS” (Exithera Pharmaceuticals, Inc., priority 2018, published 2021).

Tested on: blood coagulation components
Conditions: dog, in vivo
Method: The following parameters and endpoints were evaluated in this study: mortality, body weight, physical, clinical pathology parameters (hematology and coagulation), […], and bioanalytical parameters.
The vehicle and test article were administered via intravenous (IV) infusion once on Day 1 for 135 minutes (initiated 30 minutes prior to starting the Cardiopulmonary Bypass (CPB) and continuing for 105 minutes of CPB). Group 2 animals received a […] IV bolus dose immediately prior to the start of IV infusion. Group 3, 4, and 5 animals received a 10 mg/kg IV bolus dose prior to the start of the IV infusion; with the CPB machine primed with test article at 10 μg/mL.
Infusion of the Compound 1 was started 30 minutes prior to the animal being placed on the CPB pump. The CPB pump was primed with 0.9% saline.
Venous and arterial sheaths were flushed with the Compound 1 at a concentration of 10 μg/mL. An IV bolus dose of the test article was administered immediately prior to the start of the infusion. Infusion of Compound 1 was started 30 minutes prior to the animal being placed on the CPB pump. The CPB […] was primed with 10 μg/mL of the Compound 1 prior to initiation of the CPB pump.
An IV bolus dose of the Compound 1 was administered immediately prior to the start of the infusion. […]

C[C@@H](NC(=O)N1C(=O)[C@H](Cc2ccnc(N)c2)[C@H]1C(=O)O)C1CCCCC1 [Compound 1, (2S,3R)-3-((2-aminopyridin-4-yl)methyl)-1-(((R)-1-cyclohexylethyl)carbamoyl)-4-oxoazetidine-2-carboxylic acid]
morbidity or mortality: not associated with any increases in morbidity or mortality | mortality (survival to study termination): All animals survived to study termination
